Source: paper doi:10.1101/2023.02.27.530254, “Large library docking for cannabinoid-1 receptor agonists with reduced side effects” (bioRxiv, 2024)
pEC50: −log10 of the molar value.

Key:
[1] = tested on: C56BL/6 mice; experiment: Rotarod test of sedation; type: in vivo, mouse; settings: for dose showing motor deficits: rotarod test
Method: (§1) Hindpaw mechanical thresholds were determined with von Frey filaments using the up-down method. […] Each training has three sessions of five min. each.

[2] = target: T1, CB1R (Homo sapiens, UniProt P21554, C107A/C139A/C149A/C238A/C355A/C382A/C386A/C415A/C431A/C449A/C98A/R336C); experiment: Bimane fluorescence of TM6-labeled minimal cysteine CB1R; type: biochemical; settings: 10 μM ligand; apo 459 nm
T1 construct: N-terminal FLAG tag and C-terminal histidine tag was added to human full-length CB1; FLAG (N); histidine tag (C); made in house; host or cells: Spodoptera frugiperda Sf9 (baculovirus)
T1 sequence (P21554 whole entry C98A/C107A/C139A/C149A/C238A/R336C/C355A/C382A/C386A/C415A/C431A/C449A): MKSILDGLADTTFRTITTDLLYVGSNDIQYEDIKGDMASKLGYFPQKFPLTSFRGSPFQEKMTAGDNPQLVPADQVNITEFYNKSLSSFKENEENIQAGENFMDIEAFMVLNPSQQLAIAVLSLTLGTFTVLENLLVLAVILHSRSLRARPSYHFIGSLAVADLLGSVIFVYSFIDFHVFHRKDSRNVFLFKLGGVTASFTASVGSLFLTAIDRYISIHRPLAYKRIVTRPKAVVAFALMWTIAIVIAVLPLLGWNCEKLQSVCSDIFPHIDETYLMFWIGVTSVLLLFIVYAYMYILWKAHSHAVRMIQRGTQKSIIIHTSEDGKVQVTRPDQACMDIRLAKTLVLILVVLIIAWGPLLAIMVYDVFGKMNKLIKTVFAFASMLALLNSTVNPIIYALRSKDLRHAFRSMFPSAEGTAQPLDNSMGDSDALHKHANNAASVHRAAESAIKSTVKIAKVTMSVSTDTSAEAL
Method: A minimal cysteine version of CB1R was generated[73] where all the cysteine residues (except C256 and C264) were mutated to alanine. […] Excess label was removed using size exclusion chromatography on a Superdex 200 10/300 Increase column in 20 mM HEPES pH 7.5, 100 mM NaCl and 0.01% MNG/0.001% CHS. Bimane-labeled CB1R at […] was incubated with ligands (10 μM) for one hour at room temperature. Fluorescence data was collected at room temperature in a 150 μL cuvette with a FluorEssence v3.8 software on a Fluorolog instrument (Horiba) in photon-counting mode. Bimane fluorescence was measured by excitation at 370 nm with excitation and emission bandwidth passes of 4 nm. The emission spectra were recorded from 410 to 510 nm with 1 nm increment and 0.1 s integration time.

[3] = tested on: GPR55, GPR18, GPR119; experiment: PRESTO-Tango GPCRome arrestin-recruitment screen; type: cell-based; settings: tested at 10 μM
Method: (§2) Compound ‘4042 was tested at 10 μM for off-target activity against a panel of 320 non-olfactory GPCRs using PRESTO-Tango GPCRome arrestin-recruitment assay, as described. Receptors with at least three-fold increased relative luminescence over corresponding basal activity are potential positive hits, and were tested in dose response follow-up studies. Compound ‘4042 was further tested at 1 μM for off-target activity at a panel of 45 common GPCR and non-GPCR drug targets. Receptors with at least 50% displaced radioligand are potential positive hits and were tested in dose response follow-up studies. Screening was performed by the National Institutes of Mental Health Psychoactive Drug Screen Program (PDSP)[81].

[4] = tested on: melatonin-1 (MT1R), ghrelin (GHSR), Sigma1 and peripheral benzodiazepine receptors; experiment: PDSP off-target secondary validation (dose response) assays; type: cell-based; settings: read-out: EC50 at off-target receptors (weak partial agonism)
Method: as §2

[5] = target: T2, hCB2 (Homo sapiens, UniProt P34972); experiment: Radioligand competition binding with [3H]-CP-55,940, HEK293 cells stably expressing human CB2R; parameters: expressed in transfected cells; settings: Fig. S8, read-out: hCB2 pKi (converted)
T2 sequence (P34972 whole entry): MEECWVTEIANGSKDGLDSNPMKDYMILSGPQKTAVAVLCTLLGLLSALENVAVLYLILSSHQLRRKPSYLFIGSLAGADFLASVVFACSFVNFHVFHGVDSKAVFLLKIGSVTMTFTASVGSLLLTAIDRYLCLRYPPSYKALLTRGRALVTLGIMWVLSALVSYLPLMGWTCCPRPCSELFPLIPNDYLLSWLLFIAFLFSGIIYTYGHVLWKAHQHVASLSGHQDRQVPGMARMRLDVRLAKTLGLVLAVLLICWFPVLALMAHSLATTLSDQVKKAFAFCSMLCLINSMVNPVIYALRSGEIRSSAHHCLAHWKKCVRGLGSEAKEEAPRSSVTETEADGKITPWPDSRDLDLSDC
Method: The binding affinities of the compounds were obtained by competition binding using membrane preparations from rat brain (source of CB1) or HEK293 cells stably expressing human CB2R receptors and [^3H]-CP-55,940 as the radioligand, as described. The results were analyzed using nonlinear regression to determine the IC50 and Ki values for each ligand (Prism by GraphPad Software, Inc., San Diego, CA). The Ki values are expressed as the mean of two to three experiments each performed in triplicate.

[6] = target: T2, hCB2; experiment: Cerep cAMP assay; type: cell-based
[7] = target: T3, hCB1 (Homo sapiens, UniProt P21554); experiment: Cerep HTRF cAMP inhibition assay, hCB1 CHO-K1 cells; type: cell-based
T3 sequence (P21554 whole entry): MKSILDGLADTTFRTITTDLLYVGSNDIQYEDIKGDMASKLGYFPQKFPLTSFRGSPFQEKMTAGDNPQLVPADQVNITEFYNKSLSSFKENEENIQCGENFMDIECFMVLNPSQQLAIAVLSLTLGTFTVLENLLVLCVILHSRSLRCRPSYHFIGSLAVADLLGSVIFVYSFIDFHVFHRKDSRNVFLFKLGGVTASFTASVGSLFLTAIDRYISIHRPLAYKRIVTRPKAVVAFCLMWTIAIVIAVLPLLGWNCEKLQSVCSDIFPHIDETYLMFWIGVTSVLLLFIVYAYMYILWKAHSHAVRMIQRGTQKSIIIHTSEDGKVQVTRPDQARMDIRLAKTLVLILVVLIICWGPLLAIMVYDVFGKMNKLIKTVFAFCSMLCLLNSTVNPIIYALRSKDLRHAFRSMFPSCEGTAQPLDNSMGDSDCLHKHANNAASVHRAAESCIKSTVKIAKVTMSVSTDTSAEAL
Method: The hCB1 CHO-K1 cells are suspended in HBSS buffer (Invitrogen) complemented with 20 mM HEPES (pH 7.4), then distributed in microplates at a density of 5.103 cells/well in the presence of either of the following: HBSS (basal control), the reference agonist at 30 nM (stimulated control) or the test compounds. […] Following 30 min incubation at 37°C, the cells are lysed, and the fluorescence acceptor (D2-labeled cAMP) and fluorescence donor (anti-cAMP antibody labeled with europium cryptate) are added. […] Each measurement was done in triplicate.

[8] = tested on: C56BL/6 mice; experiment: Formalin test; type: in vivo, mouse; settings: 0.2 mg/kg i.p., 60 min observation
Method: Thirty minutes after an i.p. injection of the compounds, mice received an intraplantar injection of a 20μl solution containing 2% formalin (Acros Organics) and we recorded the time mice spent licking/biting/guarding (nocifensive behaviors) the injected hindpaw over the next 60 min.

[9] = tested on: C56BL/6 mice; experiment: CFA-induced inflammatory pain model, Hargreaves test; type: in vivo, mouse; settings: 0.2 mg/kg i.p.
Method: as §1
The CFA model of chronic inflammation was induced as described previously. Briefly, CFA (Sigma) was diluted 1:1 with saline and vortexed for 30 min. When fully suspended, we injected 20 μL of CFA into one hindpaw. Heat thresholds were measured before the injection (baseline) and 3 days after the injection using the Hargreaves test.

[10] = tested on: C56BL/6 mice; experiment: Mechanical thresholds (von Frey), SNI model of neuropathic pain and naive mice; type: in vivo, mouse
Method: as §1
Under isoflurane anesthesia, two of the three branches of the sciatic nerve were ligated and transected distally, leaving the sural nerve intact. Behavior was tested 7 to 14 days after injury.

[11] = target: T3, hCB1; experiment: DiscoverX PathHunter β-arrestin-2 recruitment assay; type: cell-based
Method: PathHunter cell lines (CHO-K1 lineage expressing hCB1) were expanded from freezer stocks according to standard procedures. Cells were seeded in a total volume of 20 μL into white walled, 384-well microplates and incubated at 37°C for the appropriate time prior to testing. For agonist determination, cells were incubated with sample to induce response. Intermediate dilution of sample stocks was performed to generate 5X sample in assay buffer. 5 μL of 5X sample was added to cells and incubated at 37°C or room temperature for 90 to 180 minutes. Vehicle concentration was 1%. […] Microplates were read following signal generation with a PerkinElmer EnvisionTM instrument for chemiluminescent signal detection. Compound activity was analyzed using CBIS data analysis suite (ChemInnovation, CA).
The data were analyzed in GraphPad Prism 9.1 using “dose–response-stimulation log(agonist) versus response (four parameters)” and data were presented as EC50 or pEC50 ± CIs of one independent experiment in duplicate.

| SMILES | window between heat-based response and sedation ([1]; rotarod) | dose showing motor deficits [1] | bimane spectrum λmax [2] | agonist activity at putative cannabinoid receptors [3] | pEC50 [4] | Ki [5] | pEC50 [6] | Emax ([6]; read-out: hCB2 Cerep cAMP Emax [95% CI]) | pEC50 [7] | Emax ([7]; CHO-K1, read-out: hCB1 Cerep cAMP Emax [95% CI]) | duration of phase 1 and phase 2 nocifensive behaviors [8] | effect on paw withdrawal latency after CFA [9] | effect on SNI mechanical allodynia ([10]; 0.2 mg/kg i.p.) | effect on mechanical thresholds of naïve (non-SNI) animals ([10]; 0.2 mg/kg i.p.) | effect on SNI mechanical allodynia ([10]; intrathecal, up to 100 μg/kg) | pEC50 ([11]; hCB1 DiscoverX ß-arrestin recruitment EC50 [95% CI]) | pEC50 ([11]; hCB1 DiscoverX ß-arrestin recruitment pEC50 [95% CI]) | Emax ([11]; read-out: hCB1 DiscoverX ß-arrestin recruitment Emax [95% CI]) |
| --- | --- | --- | --- | --- | --- | --- | --- | --- | --- | --- | --- | --- | --- | --- | --- | --- | --- | --- |
| COC(=O)[C@@](C)(NC(=O)c1cc(C)n(-c2cccc(C(F)(F)F)c2)n1)c1cccs1 [‘1350] | only five-fold | 0.5 mg/kg | 463 nm |  |  |  |  |  |  |  |  |  |  |  |  |  |  |  |
| COC(=O)C(C)(NC(=O)c1cc(C)n(-c2cccc(C(F)(F)F)c2)n1)c1cccs1 (stereo not shown) [‘4042] |  | 1.0 mg/kg |  | no agonist activity | < 6.00 | 2.51 nM | 10.95 | 72% | 11.10 | 96% | profoundly decreased | analgesic | did not counter the mechanical allodynia | did not alter the mechanical thresholds | modest anti-allodynic effect | 8.64 | 8.70 | 71% |
